In patent US10336762B2 (priority 2017, dated 2019):

What was measured:
TNFα = assay: cells; format: cell-based, human; details: Homo sapiens, Monocyte, LPS-stimulated human monocytes, TNFα content; read-out: EC50 TNF
IRAK4 enzyme = IRAK4 enzyme (Homo sapiens (Human), UniProt Q9NWZ3); assay: biochemical; format: biochemical; details: IRAK4 enzyme, TR-FRET, 500 μM ATP
Chain of IRAK4 enzyme (Q9NWZ3 whole entry): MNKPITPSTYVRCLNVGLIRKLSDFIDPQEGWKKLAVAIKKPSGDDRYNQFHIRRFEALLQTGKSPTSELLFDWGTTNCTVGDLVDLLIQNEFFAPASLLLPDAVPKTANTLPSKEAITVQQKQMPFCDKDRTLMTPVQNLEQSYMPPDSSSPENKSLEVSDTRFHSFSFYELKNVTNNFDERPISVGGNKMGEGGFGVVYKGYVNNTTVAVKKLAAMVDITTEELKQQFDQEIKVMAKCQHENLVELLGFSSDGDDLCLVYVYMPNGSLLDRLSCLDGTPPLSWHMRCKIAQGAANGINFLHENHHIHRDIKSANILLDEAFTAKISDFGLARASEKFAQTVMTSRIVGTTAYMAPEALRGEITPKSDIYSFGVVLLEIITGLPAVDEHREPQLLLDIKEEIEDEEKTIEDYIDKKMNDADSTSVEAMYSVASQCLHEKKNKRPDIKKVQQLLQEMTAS

Compound | EC50 (TNFα) [nM] | IC50 (IRAK4 enzyme) [nM]
CC(C)(O)[C@H](F)CNC(=O)c1cnc(-c2ccc3cc(C#N)cnn23)cc1NC1CCC(C(=O)N2CC(F)(F)C2)CC1 (stereo partly drawn) [Example 174, 6-(3-cyanopyrrolo[1,2-b]pyridazin-7-yl)-4-(((1r,4R)-4-(3,3-difluoroazetidine-1-carbonyl)cyclohexyl)amino)-N-((R)-2-fluoro-3-hydroxy-3-methylbutyl)nicotinamide] | 92 | 1
CC(C)(O)[C@H](F)CNC(=O)c1cnc(-c2ccc3cc(C#N)cnn23)cc1Nc1ccc(-c2nc[nH]n2)cc1 [Example 175, (R)-4-((4-(1H-1,2,4-triazol-3-yl)phenyl)amino)-6-(3-cyanopyrrolo[1,2-b]pyridazin-7-yl)-N-(2-fluoro-3-hydroxy-3-methylbutyl)nicotinamide] | 20 | < 1
CC(C)(O)[C@H](F)CNC(=O)c1cnc(-c2ccc3cc(C#N)cnn23)cc1Nc1ccc(-n2ncnn2)cc1 [Example 176, (R)-4-((4-(2H-tetrazol-2-yl)phenyl)amino)-6-(3-cyanopyrrolo[1,2-b]pyridazin-7-yl)-N-(2-fluoro-3-hydroxy-3-methylbutyl)nicotinamide] | > 10000 | 1
CC(C)(O)[C@H](F)CNC(=O)c1cnc(-c2ccc3cc(C#N)cnn23)cc1Nc1ccc(-c2cc[nH]n2)cc1 [Example 177, (R)-4-((4-(1H-pyrazol-3-yl)phenyl)amino)-6-(3-cyanopyrrolo[1,2-b]pyridazin-7-yl)-N-(2-fluoro-3-hydroxy-3-methylbutyl)nicotinamide] | 29 | < 1
CC(C)(O)[C@H](F)CNC(=O)c1cnc(-c2ccc3cc(C#N)cnn23)cc1Nc1ccc(-c2cn[nH]c2)cc1 [Example 178, (R)-4-((4-(1H-pyrazol-4-yl)phenyl)amino)-6-(3-cyanopyrrolo[1,2-b]pyridazin-7-yl)-N-(2-fluoro-3-hydroxy-3-methylbutyl)nicotinamide] | 10 | < 1
Cn1cnc(-c2ccc(Nc3cc(-c4ccc5cc(C#N)cnn45)ncc3C(=O)NC[C@@H](F)C(C)(C)O)cc2)n1 [Example 179, (R)-6-(3-cyanopyrrolo[1,2-b]pyridazin-7-yl)-N-(2-fluoro-3-hydroxy-3-methylbutyl)-4-((4-(1-methyl-1H-1,2,4-triazol-3-yl)phenyl)amino) nicotinamide] | 59 | 1
CC(C)(O)[C@H](F)CNC(=O)c1cnc(-c2ccc3cc(C#N)cnn23)cc1Nc1ccc(-n2ccnn2)cc1 [Example 180, (R)-4-((4-(1H-1,2,3-triazol-1-yl)phenyl)amino)-6-(3-cyanopyrrolo[1,2-b]pyridazin-7-yl)-N-(2-fluoro-3-hydroxy-3-methylbutyl)nicotinamide] | 34 | < 1
CC(C)(O)[C@H](F)CNC(=O)c1cnc(-c2ccc3cc(C#N)cnn23)cc1NCc1cn[nH]c1 [Example 181, (R)-4-(((1H-pyrazol-4-yl)methyl)amino)-6-(3-cyanopyrrolo[1,2-b]pyridazin-7-yl)-N-(2-fluoro-3-hydroxy-3-methylbutyl)nicotinamide] | > 10000 | 1000
CNC(=O)C1CCC(Nc2cc(-c3ccc4cc(C#N)cnn34)ncc2C(=O)NC[C@@H](F)C(C)(C)O)CC1 (stereo partly drawn) [Example 182, 6-(3-cyanopyrrolo[1,2-b]pyridazin-7-yl)-N-((R)-2-fluoro-3-hydroxy-3-methylbutyl)-4-(((1r,4R)-4-(methylcarbamoyl)cyclohexyl)amino) nicotinamide] | 70 | 1
CC(C)(O)[C@H](F)CNC(=O)c1cnc(-c2ccc3cc(C#N)cnn23)cc1Nc1ccnnc1 [Example 183, (R)-6-(3-cyanopyrrolo[1,2-b]pyridazin-7-yl)-N-(2-fluoro-3-hydroxy-3-methylbutyl)-4-(pyridazin-4-ylamino)nicotinamide] | 657 | 6
Cc1ccc(Nc2cc(-c3ccc4cc(C#N)cnn34)ncc2C(=O)NC[C@@H](F)C(C)(C)O)cn1 [Example 184, (R)-6-(3-cyanopyrrolo[1,2-b]pyridazin-7-yl)-N-(2-fluoro-3-hydroxy-3-methylbutyl)-4-((6-methylpyridin-3-yl)amino)nicotinamide] | 48 | < 1
CC(C)(O)[C@H](F)CNC(=O)c1cnc(-c2ccc3cc(C#N)cnn23)cc1Nc1cnccn1 [Example 185, (R)-6-(3-cyanopyrrolo[1,2-b]pyridazin-7-yl)-N-(2-fluoro-3-hydroxy-3-methylbutyl)-4-(pyrazin-2-ylamino)nicotinamide] | 46 | < 1
CC(C)(O)[C@H](F)CNC(=O)c1cnc(-c2ccc3cc(C#N)cnn23)cc1Nc1ccc(C(F)(F)F)nc1 [Example 186, (R)-6-(3-cyanopyrrolo[1,2-b]pyridazin-7-yl)-N-(2-fluoro-3-hydroxy-3-methylbutyl)-4-((6-(trifluoromethyl)pyridin-3-yl)amino)nicotinamide] | 145 | 1
Cc1cc(Nc2cc(-c3ccc4cc(C#N)cnn34)ncc2C(=O)NC[C@@H](F)C(C)(C)O)cnc1F [Example 187, (R)-6-(3-cyanopyrrolo[1,2-b]pyridazin-7-yl)-N-(2-fluoro-3-hydroxy-3-methylbutyl)-4-((6-fluoro-5-methylpyridin-3-yl)amino) nicotinamide] | 152 | 1
CC(C)Nc1cc(-c2ccc3cc(C#N)cnn23)ncc1C(=O)N[C@@H]1CC[C@@H](O)C1 [Example 188, 6-(3-cyanopyrrolo[1,2-b]pyridazin-7-yl)-N-((1R,3R)-3-hydroxycyclopentyl)-4-(isopropylamino) nicotinamide] | 275 | 8
CC(C)Nc1cc(-c2ccc3cc(C#N)cnn23)ncc1C(=O)N[C@H]1CC[C@H](O)C1 [Example 189, 6-(3-cyanopyrrolo[1,2-b]pyridazin-7-yl)-N-((1S,3S)-3-hydroxycyclopentyl)-4-(isopropylamino) nicotinamide] | 136 | 6
CC(C)Nc1cc(-c2ccc3cc(C#N)cnn23)ncc1C(=O)N[C@H]1CCC[C@@H](O)C1 [Example 190, 6-(3-cyanopyrrolo[1,2-b]pyridazin-7-yl)-N-((1S,3R)-3-hydroxycyclohexyl)-4-(isopropylamino) nicotinamide] | 209 | 8
CC(C)Nc1cc(-c2ccc3cc(C#N)cnn23)ncc1C(=O)N[C@H]1CCC[C@H](O)C1 [Example 191, 6-(3-cyanopyrrolo[1,2-b]pyridazin-7-yl)-N-((1S,3S)-3-hydroxycyclohexyl)-4-(isopropylamino) nicotinamide] | 128 | 4
CC(C)Nc1cc(-c2ccc3cc(C#N)cnn23)ncc1C(=O)N[C@@H]1CCC[C@@H](O)C1 [Example 192, 6-(3-cyanopyrrolo[1,2-b]pyridazin-7-yl)-N-((1R,3R)-3-hydroxycyclohexyl)-4-(isopropylamino) nicotinamide] | 157 | 5
CC(C)Nc1cc(-c2ccc3cc(C#N)cnn23)ncc1C(=O)N[C@@H]1CCC[C@H](O)C1 [Example 193, 6-(3-cyanopyrrolo[1,2-b]pyridazin-7-yl)-N-((1R,3S)-3-hydroxycyclohexyl)-4-(isopropylamino) nicotinamide] | 141 | 3
CC(C)(O)[C@H](F)CNC(=O)c1cnc(-c2ccc3cc(C#N)cnn23)cc1N[C@@H]1CCOC1 [Example 194, 6-(3-cyanopyrrolo[1,2-b]pyridazin-7-yl)-N-((R)-2-fluoro-3-hydroxy-3-methylbutyl)-4-(((R)-tetrahydrofuran-3-yl)amino)nicotinamide] | 48 | < 1
CC(C)(O)[C@H](F)CNC(=O)c1cnc(-c2ccc3cc(C#N)cnn23)cc1N[C@H]1CCOC1 [Example 195, 6-(3-cyanopyrrolo[1,2-b]pyridazin-7-yl)-N-((R)-2-fluoro-3-hydroxy-3-methylbutyl)-4-(((S)-tetrahydrofuran-3-yl)amino)nicotinamide] | 37 | < 1
COC(=O)N1Cc2ccc(Nc3cc(-c4ccc5cc(C#N)cnn45)ncc3C(=O)NC[C@@H](F)C(C)(C)O)cc2C1 [Example 196, (R)-methyl 5-((2-(3-cyanopyrrolo[1,2-b]pyridazin-7-yl)-5-((2-fluoro-3-hydroxy-3-methylbutyl)carbamoyl)pyridin-4-yl)amino)isoindoline-2-carboxylate] | 53 | 2
CC(=O)N1Cc2ccc(Nc3cc(-c4ccc5cc(C#N)cnn45)ncc3C(=O)NC[C@@H](F)C(C)(C)O)cc2C1 [Example 197, (R)-4-((2-acetylisoindolin-5-yl)amino)-6-(3-cyanopyrrolo[1,2-b]pyridazin-7-yl)-N-(2-fluoro-3-hydroxy-3-methylbutyl)nicotinamide] | 42 | 1
CC(C)(O)[C@H](F)CNC(=O)c1cnc(-c2ccc3cc(C#N)cnn23)cc1Nc1ccc(CNCC(F)(F)F)cc1 [Example 198, (R)-6-(3-cyanopyrrolo[1,2-b]pyridazin-7-yl)-N-(2-fluoro-3-hydroxy-3-methylbutyl)-4-((4-(((2,2,2-trifluoroethyl)amino)methyl)phenyl)amino)nicotinamide] | 16 | < 1
CC(C)(O)[C@H](F)CNC(=O)c1cnc(-c2ccc3cc(C#N)cnn23)cc1Nc1cnn([C@H]2CCN(C3COC3)C2)c1 [Example 199, 6-(3-cyanopyrrolo[1,2-b]pyridazin-7-yl)-N-((R)-2-fluoro-3-hydroxy-3-methylbutyl)-4-((1-((S)-1-(oxetan-3-yl)pyrrolidin-3-yl)-1H-pyrazol-4-yl)amino)nicotinamide] | 82 | < 1
CC(C)(O)[C@H](F)CNC(=O)c1cnc(-c2ccc3cc(C#N)cnn23)cc1Nc1ccc(CN2CCCC2=O)cc1 [Example 200, (R)-6-(3-cyanopyrrolo[1,2-b]pyridazin-7-yl)-N-(2-fluoro-3-hydroxy-3-methylbutyl)-4-((4-((2-oxopyrrolidin-1-yl)methyl)phenyl)amino) nicotinamide] | 15 | 1
